Literature values as cited in patent US8691290B2 (priority 2006, dated 2014).

Tested on: polymorphonuclear leukocytes (PMN) cells
Conditions: S. aureus with various concentrations of PVP-I, 6 hours

In the case of polyvinylpyrolodone-iodine [PVP-I], the “TNF-α release from PMN cells” value is given as “released increasing amounts of TNF-α as PVP-I is diluted”.
